{"source": "patent US20090061024A1", "about": "“COMPOSITIONS AND METHODS EMPLOYING NMDA ANTAGONISTS FOR ACHIEVING AN ANESTHETIC-SPARING EFFECT” (Wyeth, priority 2007, published 2009)", "key": {"[1]": {"system": "rats trained to distinguish between PCP and saline", "details": "cited from earlier work"}, "[2]": {"assay": "Anesthetic-sparing effect of perzinfotel with isoflurane (summary statements)", "assay_type": "in vivo, dogs", "details": "in combination with anesthetic (isoflurane); doses without reduced cardiopulmonary function"}, "[3]": {"details": "doses needed to relieve hyperalgesia in preclinical pain models; cited from earlier work"}, "[4]": {"details": "doses typically used clinically; cited from earlier work"}, "[5]": {"system": "cingulate and retrosplenial cortices", "details": "mice and rats, cited from earlier work"}}, "note": "Read-outs that look alike come from different tables or passages of the source."}
{"smiles": "CC12CC3CC(C)(C1)CC(N)(C3)C2", "note": "[memantine]", "values": [{"measurement": "substitution for PCP (discriminative stimulus effects)", "setting": "[1]", "value": "substitute"}]}
{"smiles": "O=c1c2c(c1=O)N(CCP(=O)(O)O)CCCN2", "note": "[Perzinfotel, [2-(8,9-dioxo-2,6-diazabicyclo[5.2.0]non-1-(7)-en-2-yl)ethyl]phosphonic acid]", "values": [{"measurement": "substitution for PCP (discriminative stimulus effects)", "setting": "[1]", "value": "did not substitute"}, {"measurement": "anesthetic-sparing effects", "setting": "[2]", "value": "up to 60%"}, {"measurement": "ataxia or sedation", "setting": "[3]", "value": "did not produce ataxia or sedation"}]}
{"smiles": "C[C@]12N[C@H](Cc3ccccc31)c1ccccc12", "note": "[dizocilpine]", "values": [{"measurement": "substitution for PCP (discriminative stimulus effects)", "setting": "[1]", "value": "substitute"}]}
{"smiles": "CNC1(c2ccccc2Cl)CCCCC1=O", "note": "(centres unmarked) [ketamine]", "values": [{"measurement": "anesthetic-sparing effects", "setting": "[4]", "value": "10-20%"}]}
{"smiles": "O=C(O)[C@H]1C[C@@H](CP(=O)(O)O)CCN1", "note": "(relative stereo) [CGS-19755, cis-4-phosphonomethyl-2-piperidine carboxylic acid]", "values": [{"measurement": "vacuoles in some layers of the cingulate and retrosplenial cortices", "setting": "[5]; behaviorally effective doses", "value": "transient, reversible induction of vacuoles"}, {"measurement": "effectiveness:vacuolization ratio", "setting": "[5]", "value": 1}]}
